Assay results: PMC4958397, “Synthesis, antibacterial and antiproliferative potential of some new 1-pyridinecarbonyl-4-substituted thiosemicarbazide derivatives” (Medicinal Chemistry Research, 2016)

How the values were obtained:
[1] = tested on: pathogenic microaerobic bacteria (causing dental caries); test: Broth microdilution MIC, summary in text; type: cell-based; settings: range over compounds and strains; read-out: MIC against pathogenic microaerobic bacteria
From the text: (§1) Panel reference strains of bacteria from the American Type Culture Collection or Polish Collection of Microorganisms, including aerobic Gram-positive bacteria: Staphylococcus aureus ATCC 25923 and Staphylococcus epidermidis ATCC 12228, and aerobic Gram-negative bacteria: Escherichia coli ATCC 25922 and Pseudomonas aeruginosa ATCC 9027, as well as microaerobic Gram-positive bacteria: Lactobacillus spp., Lactobacillus acidophilus PCM 2105, Streptococcus mutans PCM 2502 and Streptococcus sanguinis PCM 2335, were used. Microbial suspensions with an optical density of 0.5 McFarland standard at 1.5 × 10^8 CFU/mL (CFU: colony forming unit) were prepared in sterile 0.9 % NaCl. Mueller–Hinton (M–H) broth and M–H agar (Oxoid Ltd., England) for aerobic strains, and MRS Broth Lactobacillus, MRS Agar Lactobacillus (BioMaxima S.A., Poland), BHI Broth and BHI agar (BioMaxima S.A., Poland) for microaerobic strains were used in the microbial tests.
(§2) A broth microdilution method was used to evaluate the minimum inhibition concentration (MIC) according to the CLSI document (CLSI performance standards for antimicrobial susceptibility testing, 2008, Eighteenth International Supplement, CLSI document M7-MIC, Clinical Laboratory Standards Institute, Wayne) with some modifications. […] A serial doubling dilution of the compounds was prepared in 96-well plates (200 μL per well). A suitable medium (M-H Broth, MRS Broth Lactobacillus, BHI Broth) was used as a diluent. The final concentrations of derivatives were 1000–0.015 μg/mL. Finally, 2 μL of inoculum of the tested bacterial strain (1.5 × 10^8 CFU/mL) was added to each well. The tests were performed either at 36 °C for 18 h (aerobic strains) or at 40 h (microaerobic strains). After incubation, the panel was digitally analyzed at 600 nm using the microplate reader Bio Tech Synergy (USA) with a dedicated software system. The growth intensity in each well was compared with the negative and positive controls.

Lactobacillus spp. = test: Broth microdilution MIC; type: cell-based
From the text: as §1, §2

Compound	MIC [1]	MIC (Lactobacillus spp.; Lactobacillus, read-out: Minimum inhibitory concentration (MIC), Lactobacillus spp.)	Minimum inhibitory concentration (MIC), Lactobacillus spp. (Lactobacillus spp.)
O=C(NNC(=S)Nc1ccccc1Cl)c1ccccn1 [Compound 2, 4-(2-Chlorophenyl)-1-(pyridin-2-yl)carbonylthiosemicarbazide]	7.81 to 500 µg/mL	–	–
O=C(NNC(=S)Nc1ccc(Cl)cc1Cl)c1ccccn1 [Compound 4, 4-(2,4-Dichlorophenyl)-1-(pyridin-2-yl)carbonylthiosemicarbazide]	7.81 to 500 µg/mL	31.2 µg/mL	–
CSc1ccc(NC(=S)NNC(=O)c2cccnc2)cc1 [Compound 6, 4-(4-Methylthiophenyl)-1-(pyridin-3-yl)carbonylthiosemicarbazide]	–	–	did not limit the growth
